Values joined by “and” are separate entries in the source; they are usually repeats but may differ in a detail not shown here. Equal values may be shown once.
How the values were obtained:
Type in all cases: physicochemical
[1] = Docetaxel dissolution study, USP Apparatus II (Paddle); conditions: methanol/water 15/85, 37° C., pH 7, 75 rpm
Method: At 5, 15, 30, 60, 120 and 225 minutes, a 5 mL aliquot was removed, filtered through a 0.22 μm filter, and analyzed on a UV/VIS spectrophotometer at 232 nm. Absorbance values of the samples were compared to those of standard solutions prepared in dissolution media to determine the amount of material dissolved.

Bulk density = conditions: room temperature
Method: The mass of the drug was measured to a nearest 0.1 mg, the volume was determined to the nearest 0.1 mL and the density calculated.

[2] = BET analysis (surface area); conditions: listed as raw paclitaxel
Method: A known mass between 200 and 300 mg of the analyte was added to a 30 mL sample tube. The loaded tube was then mounted to a Porous Materials Inc. SORPTOMETER®, model BET-202A. The automated test was then carried out using the BETWIN® software package and the surface area of each sample was subsequently calculated.

| Dissolution ([1]; 0 minutes) | Dissolution ([1]; 5 minutes) | Dissolution ([1]; 15 minutes) | Dissolution ([1]; 30 minutes) | Dissolution ([1]; 60 minutes) | Dissolution ([1]; 120 minutes) | Dissolution ([1]; 225 minutes) | Bulk Density (Bulk density) | Surface area [2] | Compound |
| --- | --- | --- | --- | --- | --- | --- | --- | --- | --- |
| 0.0% | 3.2% | 6.9% | 11% and 11.2% | 16.4% | 22.4% | 26.8% | 0.24 g/mL |  | CC(=O)O[C@@]12CO[C@@H]1C[C@H](O)[C@@]1(C)C(=O)[C@H](O)C3=C(C)[C@@H](OC(=O)[C@H](O)[C@@H](NC(=O)OC(C)(C)C)c4ccccc4)C[C@@](O)([C@@H](OC(=O)c4ccccc4)[C@H]21)C3(C)C [Docetaxel Raw Material, docetaxel] |
|  |  |  |  |  |  |  | 0.26 g/mL | 7.25 m^2/g | CC(=O)O[C@H]1C(=O)[C@@]2(C)[C@H]([C@H](OC(=O)c3ccccc3)[C@]3(O)C[C@H](OC(=O)[C@H](O)[C@@H](NC(=O)c4ccccc4)c4ccccc4)C(C)=C1C3(C)C)[C@]1(OC(C)=O)CO[C@@H]1C[C@@H]2O [Paclitaxel Raw Material, paclitaxel] |

From patent publication US10751319B2, “Collection device and methods for use” (CRITITECH, INC., priority 2015, dated 2020)
